One compound from patent US7332612B2 (Teva Pharmaceutical Industries Ltd., priority 2001, dated 2008) can be followed below.

The text on this data set:
To obtain Form II in high chemical purity the starting material should also be chemically pure.

Consider `CCCCc1nc(Cl)c(CO)n1Cc1ccc(-c2ccccc2-c2nnn[nH]2)cc1.[K]` [losartan potassium], for which the solubility in methanol entry (methanol, complete dissolution at room temperature) is on record as “highly soluble”. For the same compound, the solubility in xylene entry (xylene, either crystalline or amorphous) is on record as “low solubility”.
